Measurements reported in patent US20260217701A1, “SELECTIVE BET INHIBITORS AND USES THEREOF” (Tay Therapeutics Limited, priority 2022, published 2026).
“And” between values parts separate entries of the source, which are not always exact repeats. Identical values can stand only once.

Test system: collagen-induced arthritis
Test: Collagen-induced arthritis (CIA) model: clinical scores and paw volume; on Average animal paw volume percent change (%): reference of the scale not given here; on animal paw volume percent change (%): reference of the scale not given here
Type: in vivo, Lewis rats
Details: for Average animal paw volume percent change (%) / Animal paw volume percent change (%) / Average animal paw volume: group 4 CIA + GSK620 (10 mg/kg); for Animal paw volume percent change (%) / clinical score left forelimb / clinical score left hind limb / clinical score right forelimb / clinical score right hind limb / clinical score, score (all limbs) / Animal paw volume: individual animals; for Animal paw volume: Group 4 (CIA + GSK620)
[1] = group 4 CIA + GSK620, 2nd section of table, 1st day (between Day 12 and Day 18)
[2] = group 4 CIA + GSK620, 2nd section of table, 2nd day (between Day 12 and Day 18)
[3] = group 4 CIA + GSK620, 2nd section of table, 3rd day (between Day 12 and Day 18)

CNC(=O)c1cc(C(=O)NC2CC2)cn(Cc2ccccc2)c1=O [GSK620]
Percent Inhibition in clinical score (Mean ± SD) (CIA rats, 10 mg/kg): 37 ± 14%
Percent Inhibition in paw volume (Mean ± SD) (CIA rats, 10 mg/kg): 28 ± 21%
Average animal paw volume percent change (%) (Day 0, L paw): 0.00%
Animal paw volume percent change (%) (Day 0, L paw): 0.00%
Average animal paw volume percent change (%) (Day 0, R paw): 0.00%
Animal paw volume percent change (%) (Day 0, R paw): 0.00%
Average overall clinical score (Day 0, CIA): 0
clinical score left forelimb (Day 0, CIA): 0
clinical score left hind limb (Day 0, CIA): 0
clinical score right forelimb (Day 0, CIA): 0
clinical score right hind limb (Day 0, CIA): 0
clinical score, score (all limbs) (Day 0, CIA): 0
Average animal paw volume (Day 6, L paw): 1.34 mL
Animal paw volume percent change (%) (Day 6, L paw, 10 mg/kg): −0.39% and −0.73% and 0.36% and 0.00% (2×) and −0.37%
Average animal paw volume (Day 6, R paw): 1.34 mL
Average animal paw volume percent change (%) (Day 6, R paw): 1.50%
Animal paw volume percent change (%) (Day 6, R paw, 10 mg/kg): −0.39% and 0.00% (4×)
Average overall clinical score (Day 6, CIA): 0
clinical score left forelimb (Day 6, CIA): 0
clinical score left hind limb (Day 6, CIA): 0
clinical score right forelimb (Day 6, CIA): 0
clinical score right hind limb (Day 6, CIA): 0
clinical score, score (all limbs) (Day 6, CIA): 0
Average animal paw volume (Day 12, L paw): 1.36 mL
Animal paw volume percent change (%) (Day 12, L paw, 10 mg/kg): 0.76% and 0.00% and 1.50%
Average animal paw volume (Day 12, R paw): 1.37 mL
Average overall clinical score (Day 12, CIA): 0
clinical score left forelimb (Day 12, CIA): 0
clinical score left hind limb (Day 12, CIA): 0
clinical score right forelimb (Day 12, CIA): 0
clinical score right hind limb (Day 12, CIA): 0
clinical score, score (all limbs) (Day 12, CIA): 0
Average animal paw volume (Day 13, L paw): 1.38 mL
Animal paw volume percent change (%) (Day 13, L paw, 10 mg/kg): −0.73%
Average animal paw volume (Day 13, R paw): 1.41 mL
Average detailed clinical score, right hind limb (Day 13, CIA): 0.125
Average detailed clinical score, score (Day 13, CIA): 0.125
Average overall clinical score (Day 13, CIA): 0
clinical score left forelimb (Day 13, CIA): 0
clinical score left hind limb (Day 13, CIA): 0
clinical score right forelimb (Day 13, CIA): 0
clinical score right hind limb (Day 13, CIA): 0 (6×) and 1
clinical score, score (all limbs) (Day 13, CIA): 0 (6×) and 1
Animal paw volume (Day 13, L paw): 1.40 mL
Animal paw volume (Day 13, R paw): 1.40 mL
Animal paw volume percent change (%) (Day 14, L paw, 10 mg/kg): −0.37%
Animal paw volume percent change (%) (Day 14, R paw, 10 mg/kg): 4.40%
Average detailed clinical score, left hind limb (Day 14, CIA): 0.875
Average detailed clinical score, right hind limb (Day 14, CIA): 1.125
Average overall clinical score (Day 14, CIA): 2
clinical score left forelimb (Day 14, CIA): 0
clinical score left hind limb (Day 14, CIA): 0 (4×) and 2 (2×) and 1
clinical score right forelimb (Day 14, CIA): 0
clinical score right hind limb (Day 14, CIA): 0 (4×) and 2 (2×) and 3
clinical score, score (all limbs) (Day 14, CIA): 0 (3×) and 4 and 3 (2×) and 2
Animal paw volume (Day 14, L paw): 1.40 mL
Average animal paw volume (Day 15, L paw): 1.74 mL
Animal paw volume percent change (%) (Day 15, R paw, 10 mg/kg): 59.00%
Average detailed clinical score, left hind limb (Day 15, CIA): 1.625
Average detailed clinical score, score (Day 15, CIA): 3.625
Average overall clinical score (Day 15, CIA): 4
clinical score left forelimb (Day 15, CIA): 0
clinical score left hind limb (Day 15, CIA): 1 (2×) and 3 (3×) and 0 (2×)
clinical score right forelimb (Day 15, CIA): 0
clinical score right hind limb (Day 15, CIA): 1 and 3 (3×) and 0 (2×) and 4
clinical score, score (all limbs) (Day 15, CIA): 2 and 6 (3×) and 0 and 4 and 1
Animal paw volume (Day 15, L paw): 1.60 mL
Average overall clinical score (Day 18, CIA): 7
Average animal paw volume (Day 19, L paw): 2.54 mL
Animal paw volume percent change (%) (Day 19, L paw, 10 mg/kg): 83.00% and 100.00%
Average overall clinical score (Day 19, CIA): 8
Animal paw volume (Day 19, R paw): 2.20 mL
Average overall clinical score (Day 21, CIA): 8
clinical score left forelimb [1]: 0
clinical score left hind limb [1]: 0
clinical score right forelimb [1]: 0
clinical score right hind limb [1]: 0
clinical score, score (all limbs) [1]: 0
clinical score left forelimb [2]: 0
clinical score left hind limb [2]: 2
clinical score right forelimb [2]: 0
clinical score right hind limb [2]: 2
clinical score, score (all limbs) [2]: 4
clinical score left forelimb [3]: 0
clinical score left hind limb [3]: 2
clinical score right forelimb [3]: 0
clinical score right hind limb [3]: 2
clinical score, score (all limbs) [3]: 4
clinical score left forelimb (group 4 CIA + GSK620, Day 18): 0
clinical score left hind limb (group 4 CIA + GSK620, Day 18): 4 (7×) and 3
clinical score right forelimb (group 4 CIA + GSK620, Day 18): 0
clinical score right hind limb (group 4 CIA + GSK620, Day 18): 4 (6×) and 0 and 3
clinical score, score (all limbs) (group 4 CIA + GSK620, Day 18): 8 (6×) and 4 and 6
clinical score left forelimb (group 4 CIA + GSK620, Day 19): 1 (6×) and 0 (2×)
clinical score left hind limb (group 4 CIA + GSK620, Day 19): 4 (5×) and 3 (3×)
clinical score right forelimb (group 4 CIA + GSK620, Day 19): 0 (6×) and 1 (2×)
clinical score right hind limb (group 4 CIA + GSK620, Day 19): 4 (3×) and 3 (4×) and 0
clinical score, score (all limbs) (group 4 CIA + GSK620, Day 19): 9 (2×) and 10 and 6 and 5 and 7 (2×) and 8
clinical score left forelimb (group 4 CIA + GSK620, Day 20): 1 (5×) and 2 and 0 (2×)
clinical score left hind limb (group 4 CIA + GSK620, Day 20): 4 (5×) and 3 (3×)
clinical score right forelimb (group 4 CIA + GSK620, Day 20): 0 (6×) and 1 (2×)
clinical score right hind limb (group 4 CIA + GSK620, Day 20): 4 (3×) and 3 (4×) and 1
clinical score, score (all limbs) (group 4 CIA + GSK620, Day 20): 9 (2×) and 11 and 6 (2×) and 7 (2×) and 8
